According to article PMC7822874, “Chemoprotective antimalarials identified through quantitative high-throughput screening of Plasmodium blood and liver stage parasites” (Scientific Reports, 2021):
Where two headings read alike, the source gives them in different places.

Experiments:
[1] = system: Plasmodium falciparum Dd2 asexual blood stage parasites; assay: microbe, parasite or virus in culture; parameters: species or system Plasmodium falciparum Dd2 in human erythrocytes; single determination (one 11-point concentration-response curve); details: Plasmodium falciparum, DD2, Erythrocyte, 72 h; read-out: AC50
[2] = system: HepG2-A16-CD81EGFP cells; details: average of 2 wells, repeat 2; for HepG2 viability signal, 1 uM, repeat 2: nominal 1 uM (10 mM stock), […] for 15 mM, 1.2 uM for 12 mM, 2 uM for 20 mM stock; for HepG2 viability signal, 3 uM, repeat 2: nominal 3 uM (10 mM stock), 4.5 uM for 15 mM, 3.6 uM for 12 mM, 6 uM for 20 mM stock
[3] = system: P. berghei-ANKA-GFP-LucCON liver stage parasites in HepG2-A16-CD81EGFP cells; assay: P. berghei liver stage Pb-Luc assay, Method 1 (UCSD, 1536-well); format: cell-based, Plasmodium berghei; details: Plasmodium berghei, 48 h, average of 2 wells, 1536-well plate; for activity at 1 µM: nominal 1 uM (10 mM stock), […] for 15 mM, 1.2 uM for 12 mM, 2 uM for 20 mM stock; for activity at 3 µM: nominal 3 uM (10 mM stock), 4.5 uM for 15 mM, 3.6 uM for 12 mM, 6 uM for 20 mM stock; for all read-outs here: reference of the scale not given here
[4] = in vitro; details: human, HepG2-A16-CD81EGFP cells, uninfected
[5] = repeat 1, read-out: Pb-Luc signal, 1 uM, repeat 1
[6] = repeat 2, read-out: Pb-Luc signal, 1 uM, repeat 2
[7] = repeat 3, read-out: Pb-Luc signal, 1 uM, repeat 3
[8] = repeat 1, read-out: Pb-Luc signal, 3 uM, repeat 1
[9] = repeat 2, read-out: Pb-Luc signal, 3 uM, repeat 2
[10] = repeat 3, read-out: Pb-Luc signal, 3 uM, repeat 3

| Structure (SMILES) | AC50 [1] | HepG2 viability signal, 1 uM, repeat 2 [2] | HepG2 viability signal, 3 uM, repeat 2 [2] | activity at 1 µM [3, 5] | activity at 1 µM [3, 6] | activity at 1 µM [3, 7] | activity at 3 µM [3, 8] | activity at 3 µM [3, 9] | activity at 3 µM [3, 10] | viability at 48 h, 1 µM [4] | viability at 48 h, 3 µM [4] |
| --- | --- | --- | --- | --- | --- | --- | --- | --- | --- | --- | --- |
| COc1cccc(C2C(C(=O)Nc3ccc(C)cc3C)=C(C)Nc3c(C(=O)Nc4ccccc4)cnn32)c1 (stereo not shown) [NCGC00126286-01] | 2110 nM | 98.62% | 98.36% | 97.2% | 125% | 153% | 94.7% | 93.4% | 100% | 94.8% | 99.4% |
| CC1=C(C(=O)Nc2ccc(C)cc2C)C(c2ccc(Br)cc2)n2ncc(C(=O)Nc3cccc(C)c3)c2N1 (stereo not shown) [NCGC00126300-01] | 3350 nM | 95.30% | 90.59% | 94.7% | 120% | 115% | 75.3% | 87.7% | 102% | 102% | 94.6% |
| CC1=C(C(=O)Nc2ccc(C)cc2C)C(c2cc(Br)ccc2F)n2ncc(C(=O)Nc3ccc(C)cc3)c2N1 (stereo not shown) [NCGC00126328-01] | 1500 nM | 98.10% | 99.55% | 99.2% | 113% | 121% | 61.3% | 103% | 73.4% | 100% | 107% |
| CC1=C(C(=O)Nc2ccc(C)cc2C)C(c2ccc([N+](=O)[O-])cc2)n2ncc(C(=O)Nc3ccc(F)cc3)c2N1 (stereo not shown) [NCGC00126356-01] | 2990 nM | 98.93% | 92.77% | 110% | 107% | 122% | 80.3% | 94% | 83.4% | 98.5% | 94.6% |
| CCc1cccc(-n2c(=O)c3cccnc3n2CC(=O)NCc2ccccc2)c1 [NCGC00128448-01] | 1680 nM | 105.26% | 100.08% | 105% | 86.8% | 118% | 150% | 109% | 92.9% | 105% | 100% |
| CCN1CCN(c2cc(C)c3cc(NC(=O)c4cc(OC)c(OC)c(OC)c4)ccc3n2)CC1 [NCGC00137500-01] | 1330 nM | 103.37% | 106.17% | 125% | 156% | 138% | 126% | 103% | 114% | 100% | 103% |
| CCOC(=O)c1c(S(=O)(=O)N2CCCC(C(=O)N3CCN(c4cccc(C)c4C)CC3)C2)c(C)n(C)c1C (stereo not shown) [NCGC00138143-01] | 1060 nM | 101.67% | 102.57% | 90.2% | 90.3% | 120% | 83.2% | 98.3% | 108% | 96.4% | 99.6% |
| Cc1ccc(C)c(Oc2c(C(F)(F)F)oc3c(CN4CCN(C)CC4)c(O)ccc3c2=O)c1 [NCGC00141020-01] | 750 nM | 106.86% | 105.57% | 97.7% | 131% | 113% | 86% | 92.3% | 113% | 110% | 115% |
